Measurements from ChEMBL document CHEMBL1152915, “The inhibitory mechanism of a novel cationic glucosamine derivative against MMP-2 and MMP-9 expressions” (Bioorg Med Chem Lett, 2009).
Active and inactive are the calls of the source. The rule behind the calls is not given here.

Legend:
[1] = test system: HT-1080; test: Inhibition of p38 expression in phorbol myristate acetate-stimulated human HT1080 cells at 60 ug/ml by Western blotting relative to control; assay type: functional, cell-based
[2] = biological target: Matrix metalloproteinase-9 (Homo sapiens) (UniProt P14780); test: Inhibition of MMP9 gelatinolytic activity in human HT1080 cells at upto 60 ug/ml by gelatin zymography relative to control; assay type: cell-based; conditions: HT-1080
[3] = test system: HT-1080; test: Suppression of AP1 c-FOS subunit expression in phorbol myristate acetate-stimulated human HT1080 cell nucleus by Western blotting relative to control; assay type: functional, cell-based
[4] = test system: HT-1080; test: Suppression of AP1 c-FOS subunit expression in phorbol myristate acetate-stimulated human HT1080 cell cytoplasm by Western blotting relative to control; assay type: functional, cell-based
[5] = test system: HT-1080; test: Inhibition of ERK expression in phorbol myristate acetate-stimulated human HT1080 cells at 60 ug/ml by Western blotting relative to control; assay type: functional; set-up: scale not given: the % may be the effect or the level left
[6] = biological target: 72 kDa type IV collagenase (Homo sapiens) (UniProt P08253); test: Inhibition of MMP2 gene promoter activity in phorbol myristate acetate-stimulated human HT1080 cells at 60 ug/ml by luciferase reporter gene assay relative to control; assay type: cell-based; conditions: HT-1080
[7] = biological target: 72 kDa type IV collagenase (Homo sapiens) (UniProt P08253); test: Inhibition of MMP2 gelatinolytic activity in phorbol myristate acetate-stimulated human HT1080 cells at 60 ug/ml by gelatin zymography relative to control; assay type: cell-based; conditions: HT-1080
[8] = biological target: 72 kDa type IV collagenase (Homo sapiens) (UniProt P08253); test: Inhibition of MMP2 gelatinolytic activity in human HT1080 cells at upto 60 ug/ml by gelatin zymography relative to control; assay type: cell-based; conditions: HT-1080
[9] = test system: HT-1080; test: Suppression of NF-kappaB p65 subunit expression in phorbol myristate acetate-stimulated human HT1080 cell cytoplasm by Western blotting relative to control; assay type: functional, cell-based
[10] = biological target: 72 kDa type IV collagenase (Homo sapiens) (UniProt P08253); test: Inhibition of MMP2 gene promoter activity in phorbol myristate acetate-stimulated human HT1080 cells by luciferase reporter gene assay; assay type: cell-based; conditions: HT-1080
[11] = biological target: Matrix metalloproteinase-9 (Homo sapiens) (UniProt P14780); test: Reduction of gelatinolytic activity of MMP9 in phorbol myristate acetate-stimulated human HT1080 cells at 40 and 60 ug/ml; assay type: cell-based; conditions: HT-1080
[12] = test system: HT-1080; test: Antiinvasive activity in human HT1080 cells at 20 ug/ml after 48 hrs; assay type: functional
[13] = test system: HT-1080; test: Suppression of MMP9 expression in phorbol myristate acetate-stimulated human HT1080 cells by Western blotting relative to control; assay type: functional, cell-based
[14] = test system: HT-1080; test: Suppression of MMP2 expression in phorbol myristate acetate-stimulated human HT1080 cells by Western blotting relative to control; assay type: functional, cell-based
[15] = biological target: 72 kDa type IV collagenase (Homo sapiens) (UniProt P08253); test: Inhibition of MMP2 in phorbol myristate acetate-stimulated human HT1080 cells by gelatin zymography relative to control; assay type: cell-based; conditions: HT-1080
[16] = biological target: Matrix metalloproteinase-9 (Homo sapiens) (UniProt P14780); test: Inhibition of MMP9 gelatinolytic activity in phorbol myristate acetate-stimulated human HT1080 cells at 60 ug/ml by gelatin zymography relative to control; assay type: cell-based; conditions: HT-1080
[17] = biological target: Matrix metalloproteinase-9 (Homo sapiens) (UniProt P14780); test: Inhibition of MMP9 in phorbol myristate acetate-stimulated human HT1080 cells by gelatin zymography relative to control; assay type: cell-based; conditions: HT-1080
[18] = test system: HT-1080; test: Inhibition of cell migration in human HT1080 cells at 60 ug/ml; assay type: functional
[19] = test system: HT-1080; test: Inhibition of NF-kappaB gene promoter activity in phorbol myristate acetate-stimulated human HT1080 cells at 60 ug/ml by luciferase reporter gene assay; assay type: cell-based
[20] = test system: HT-1080; test: Inhibition of JNK expression in phorbol myristate acetate-stimulated human HT1080 cells at 60 ug/ml by Western blotting relative to control; assay type: functional, cell-based
[21] = biological target: Matrix metalloproteinase-9 (Homo sapiens) (UniProt P14780); test: Inhibition of MMP9 gene promoter activity in phorbol myristate acetate-stimulated human HT1080 cells at 60 ug/ml by luciferase reporter gene assay relative to control; assay type: cell-based; conditions: HT-1080
[22] = biological target: Transcription factor Jun (Homo sapiens) (UniProt P05412); test: Inhibition of AP1 gene promoter activity in phorbol myristate acetate-stimulated human HT1080 cells at 60 ug/ml by luciferase reporter gene assay; assay type: cell-based; conditions: HT-1080
[23] = test system: HT-1080; test: Cytotoxicity against human HT1080 cells assessed as cell viability at upto 60 ug/ml; assay type: cell-based
[24] = test system: HT-1080; test: Suppression of NF-kappaB p65 subunit expression in phorbol myristate acetate-stimulated human HT1080 cell nucleus by Western blotting relative to control; assay type: functional, cell-based
[25] = biological target: Matrix metalloproteinase-9 (Homo sapiens) (UniProt P14780); test: Inhibition of MMP9 gene promoter activity in phorbol myristate acetate-stimulated human HT1080 cells by luciferase reporter gene assay; assay type: cell-based; conditions: HT-1080
[26] = test system: HT-1080; test: Suppression of TIMP1 expression in phorbol myristate acetate-stimulated human HT1080 cells by Western blotting relative to control; assay type: functional, cell-based
[27] = biological target: 72 kDa type IV collagenase (Homo sapiens) (UniProt P08253); test: Reduction of gelatinolytic activity of MMP2 in phorbol myristate acetate-stimulated human HT1080 cells at 40 and 60 ug/ml; assay type: cell-based; conditions: HT-1080
[28] = test system: HT-1080; test: Suppression of TIMP2 expression in phorbol myristate acetate-stimulated human HT1080 cells by Western blotting relative to control; assay type: functional, cell-based
[29] = test system: HT-1080; test: Antiinvasive activity in human HT1080 cells at 60 ug/ml after 48 hrs; assay type: functional, cell-based

Sequence of 72 kDa type IV collagenase (Homo sapiens) (P08253 110-660 limits assumed): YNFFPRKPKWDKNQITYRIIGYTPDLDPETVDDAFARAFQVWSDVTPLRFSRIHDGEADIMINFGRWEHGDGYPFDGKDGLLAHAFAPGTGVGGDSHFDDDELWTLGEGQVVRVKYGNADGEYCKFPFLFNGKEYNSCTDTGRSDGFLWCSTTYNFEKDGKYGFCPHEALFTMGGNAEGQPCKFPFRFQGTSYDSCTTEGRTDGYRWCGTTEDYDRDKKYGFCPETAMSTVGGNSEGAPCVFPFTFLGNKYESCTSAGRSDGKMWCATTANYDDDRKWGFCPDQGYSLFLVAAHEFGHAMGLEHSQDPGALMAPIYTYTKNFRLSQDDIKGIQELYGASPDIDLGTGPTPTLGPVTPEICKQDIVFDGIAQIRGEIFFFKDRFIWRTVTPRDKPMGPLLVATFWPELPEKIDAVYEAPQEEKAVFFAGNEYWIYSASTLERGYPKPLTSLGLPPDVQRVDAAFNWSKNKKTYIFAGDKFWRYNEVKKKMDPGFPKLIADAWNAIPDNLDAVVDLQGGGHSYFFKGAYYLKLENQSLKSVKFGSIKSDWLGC
Sequence of Matrix metalloproteinase-9 (Homo sapiens) (P14780 whole entry): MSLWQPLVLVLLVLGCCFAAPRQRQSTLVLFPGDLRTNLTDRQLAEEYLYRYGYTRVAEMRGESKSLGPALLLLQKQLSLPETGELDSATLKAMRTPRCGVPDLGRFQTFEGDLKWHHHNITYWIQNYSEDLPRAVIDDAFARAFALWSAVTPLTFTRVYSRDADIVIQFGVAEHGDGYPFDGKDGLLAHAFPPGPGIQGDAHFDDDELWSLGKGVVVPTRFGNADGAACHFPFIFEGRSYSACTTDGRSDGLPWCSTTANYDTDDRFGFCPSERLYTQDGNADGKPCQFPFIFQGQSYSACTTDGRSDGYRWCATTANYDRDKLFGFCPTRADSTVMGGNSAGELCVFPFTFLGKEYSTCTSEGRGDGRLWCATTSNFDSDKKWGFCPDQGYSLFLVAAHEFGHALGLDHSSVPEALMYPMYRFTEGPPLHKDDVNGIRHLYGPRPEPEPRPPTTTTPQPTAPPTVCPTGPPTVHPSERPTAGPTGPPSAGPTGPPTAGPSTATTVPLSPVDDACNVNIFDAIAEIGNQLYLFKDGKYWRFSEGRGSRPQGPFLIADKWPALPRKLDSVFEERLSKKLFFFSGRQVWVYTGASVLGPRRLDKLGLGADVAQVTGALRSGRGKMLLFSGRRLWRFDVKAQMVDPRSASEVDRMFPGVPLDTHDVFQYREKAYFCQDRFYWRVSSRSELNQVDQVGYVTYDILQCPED
Sequence of Transcription factor Jun (Homo sapiens) (P05412 whole entry): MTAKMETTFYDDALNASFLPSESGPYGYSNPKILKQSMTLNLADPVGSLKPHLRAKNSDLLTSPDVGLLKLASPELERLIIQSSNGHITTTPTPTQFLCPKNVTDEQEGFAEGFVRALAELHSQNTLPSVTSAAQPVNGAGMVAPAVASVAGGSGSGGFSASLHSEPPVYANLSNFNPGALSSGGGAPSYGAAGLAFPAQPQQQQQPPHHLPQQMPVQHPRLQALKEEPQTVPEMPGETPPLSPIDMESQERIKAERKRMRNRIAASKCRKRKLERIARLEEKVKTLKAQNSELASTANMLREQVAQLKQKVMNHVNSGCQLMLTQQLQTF

C[N+](C)(C)CC(O)CN[C@@H]1[C@@H](O)[C@H](O)[C@@H](CO)O[C@H]1O (stereo partly drawn)
inhibition [1]: Active | inhibition [2]: inactive | Activity [3]: Active | Activity [4]: Active | Activity [5]: 60% | fold change (FC) [6]: 3 | inhibition [7]: 62% | inhibition [8]: inactive | Activity [9]: Active | inhibition [10]: Dose-dependent effect | Activity [11]: Active | Activity [12]: 50% | Activity [13]: Dose-dependent effect | Activity [14]: Dose-dependent effect | inhibition [15]: Active | inhibition [16]: 50% | inhibition [17]: Active | inhibition at 60 µg/mL [18]: 70% | inhibition [19]: 65% | inhibition [20]: Active | fold change (FC) [21]: 3 | inhibition [22]: 60% | Activity [23]: Non-toxic | Activity [24]: Active | inhibition [25]: Dose-dependent effect | Activity [26]: inactive | Activity [27]: Active | Activity [28]: inactive

C[C@H]1c2cccc(O)c2C(=O)C2=C(O)[C@]3(O)C(=O)C(C(N)=O)=C(O)[C@@H](N(C)C)[C@@H]3[C@@H](O)[C@@H]21
inhibition [2]: inactive | inhibition [8]: inactive

N[C@H]1C(O)O[C@H](CO)[C@@H](O)[C@@H]1O (stereo partly drawn)
inhibition [7]: inactive | Activity [29]: inactive | inhibition [16]: inactive
